Laboratory results: patent US6022873A, “Metalloproteinase inhibitors” (British Biotech Pharmaceuticals Limited, priority 1996, dated 2000)

Target: T1, human fibroblast collagenase (Homo sapiens, UniProt P03956)
T1 sequence (P03956 100-469): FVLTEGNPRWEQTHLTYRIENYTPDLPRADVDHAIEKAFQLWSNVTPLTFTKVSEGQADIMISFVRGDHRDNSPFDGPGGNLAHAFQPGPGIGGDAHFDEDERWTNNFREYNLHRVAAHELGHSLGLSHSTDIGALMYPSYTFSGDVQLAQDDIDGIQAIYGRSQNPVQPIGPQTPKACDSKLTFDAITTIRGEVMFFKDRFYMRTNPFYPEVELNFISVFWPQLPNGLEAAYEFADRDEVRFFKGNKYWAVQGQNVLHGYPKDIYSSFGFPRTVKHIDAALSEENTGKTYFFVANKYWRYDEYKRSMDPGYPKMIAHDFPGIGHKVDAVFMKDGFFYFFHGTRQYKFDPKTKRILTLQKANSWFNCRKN
Assay: Human fibroblast collagenase inhibition assay (14C-acetylated collagen hydrolysis, Cawston and Barrett)
Type: biochemical
Details: 37° C., 16 hours, acetylated 14C collagen, 25 mM Hepes pH 7.5; read-out: inhibitor concentration effecting 50% inhibition of the collagenase activity (IC50)
Procedure: The potency of compounds of the present invention as inhibitors of human fibroblast collagenase may be determined by the procedure of Cawston and Barrett, (Anal. Biochem., 99, 340-345, 1979), hereby incorporated by reference, whereby a 1 mM solution of the compound being tested, or a dilution thereof, was incubated at 37° C. for 16 hours with collagen and human fibroblast collagenase (buffered with 25 mM Hepes, pH 7.5 containing 5 mM CaCl2, 0.05% Brij 35 and 0.02% NaN3). The collagen was acetylated ^14 C collagen prepared by the method of Cawston and Murphy, (Methods in Enzymology, 80, 711, 1981), hereby incorporated by reference. The samples were centrifuged to sediment undigested collagen, and an aliquot of the radioactive supernatant removed for assay on a scintillation counter as a measure of hydrolysis.

IC50: ~50 nM
Compound: COc1ccc(S(=O)(=O)NCC[C@H](C(=O)NO)[C@@H](CC(C)C)C(=O)N2CCCCC2)cc1 [Example 2, 2S-[(4-Methoxybenzenesulfonyl-amino)-ethyl]-5-methyl-3R-(piperidine-1-carbonyl)-hexanoic acid hydroxyamide]
